PMC8694318, “Discovery of pyrano[2,3-d]pyrimidine-2,4-dione derivatives as novel PARP-1 inhibitors: design, synthesis and antitumor activity” (RSC Advances, 2021)
Like-named read-outs stand apart in the source and are kept apart here.

Tests used:
PARP-1 = biological target: T1, PARP-1 (Homo sapiens, UniProt P09874); assay: In vitro PARP-1 inhibitory assay (colorimetric 96-well kit, BPS Bioscience); type: biochemical
T1 construct: purchased BPS Bioscience 80580
Method: Briefly, the histone mixture was diluted 1 : 5 with 1× PBS, 50 μl of histone solution was added to each well and incubated at 4 °C overnight. The plate was washed three times using 200 μl PBST buffer (1× PBS containing 0.05% Tween-20) per well. Liquid was removed from the wells by tapping the strip wells on clean paper towels. To each well, 200 μl of blocking buffer was added, followed by 60–90 min incubation at room temperature. Then 25 μl of PARP master mixture (consisting of 2.5 μl 10× PARP buffer + 2.5 μl 10× PARP assay mixture + 5 μl activated DNA + 15 μl distilled water) was added to each well. Olaparib was used as a positive control. 5 μl of inhibitor solution of each well labeled as “test inhibitor” was added. For the “positive control” and “blank”, 5 μl of the same solution without inhibitor was added. 1× PARP buffer was prepared by adding 1 part of 10× PARP buffer to 9 parts H2O (v/v), 20 μl of 1× PARP buffer was added to the wells designated as “blank”. The amount of PARP-1 required for the assay was then calculated. The reaction was initiated by adding 20 μl of diluted PARP1 enzyme to the wells designated “positive control” and “test inhibitor control”. The strip wells were incubated at room temperature for 1 hour. The strip wells were then washed three times with 200 μl PBST buffer. Then, 50 μl of 50 times diluted Streptavidin-HRP with blocking buffer was added to each well, and the strips were further incubated at room temperature for 30 min. After washing the wells three times with 200 μl PBST buffer, HRP colorimetric substrate was added to each well and the plate was incubated at the room temperature until a blue color is developed in the positive control well. Then reaction was quenched with […] per well of 2 M sulfuric acid, and absorbance at 450 nm was determined. Carrier solvents were assayed as negative controls. All assays were performed in triplicate. To determine the IC50 value for each inhibitor, the average absorbance of each inhibitor concentration was plotted against the log of the concentration of each respective inhibitor and the IC50 value for each plot was obtained using computer-assisted non-linear regression analyses. Data presented are the results of at least two independent experiments done in triplicate. The results of these studies are presented as mean IC50 (nM).[24]

HCT116 cells = assay: Cell proliferation inhibition (MTT) assay, HCT116; type: cell-based; details: Homo sapiens, HCT-116, 96 h incubation
Method: (§1) We used the MTT [3-(4,5-dimethylthiazol-2-yl)-2,5-diphenyltetrazoliumbromide] (Biomatik, Wilmington, DE) assay to measure cell growth inhibition, which is based on the conversion of MTT to formazan crystals by mitochondrial dehydrogenases.[25] Only in live cells, mitochondrial enzymes can transform MTT into insoluble formazan. After incubated with serially diluted inhibitors for 96 h, cell cultures were incubated with MTT solution (5 mg ml^−1) for 4 h at 37 °C. Then discard the medium and DMSO was added to solubilize the reaction product formazan by shaking for 10 min. Absorbance at 492 nm was measured with a microplate reader (Thermo, MK3). Cell viability was expressed as an IC50 value.

MCF-7 cells = assay: Cell proliferation inhibition (MTT) assay, MCF-7; type: cell-based; details: Homo sapiens, MCF7, 96 h incubation
Method: as §1

[1] = colorimetric assay, mean of at least two independent experiments in triplicate, read-out: IC50 against PARP-1 (converted)

T1 sequence (P09874 whole entry): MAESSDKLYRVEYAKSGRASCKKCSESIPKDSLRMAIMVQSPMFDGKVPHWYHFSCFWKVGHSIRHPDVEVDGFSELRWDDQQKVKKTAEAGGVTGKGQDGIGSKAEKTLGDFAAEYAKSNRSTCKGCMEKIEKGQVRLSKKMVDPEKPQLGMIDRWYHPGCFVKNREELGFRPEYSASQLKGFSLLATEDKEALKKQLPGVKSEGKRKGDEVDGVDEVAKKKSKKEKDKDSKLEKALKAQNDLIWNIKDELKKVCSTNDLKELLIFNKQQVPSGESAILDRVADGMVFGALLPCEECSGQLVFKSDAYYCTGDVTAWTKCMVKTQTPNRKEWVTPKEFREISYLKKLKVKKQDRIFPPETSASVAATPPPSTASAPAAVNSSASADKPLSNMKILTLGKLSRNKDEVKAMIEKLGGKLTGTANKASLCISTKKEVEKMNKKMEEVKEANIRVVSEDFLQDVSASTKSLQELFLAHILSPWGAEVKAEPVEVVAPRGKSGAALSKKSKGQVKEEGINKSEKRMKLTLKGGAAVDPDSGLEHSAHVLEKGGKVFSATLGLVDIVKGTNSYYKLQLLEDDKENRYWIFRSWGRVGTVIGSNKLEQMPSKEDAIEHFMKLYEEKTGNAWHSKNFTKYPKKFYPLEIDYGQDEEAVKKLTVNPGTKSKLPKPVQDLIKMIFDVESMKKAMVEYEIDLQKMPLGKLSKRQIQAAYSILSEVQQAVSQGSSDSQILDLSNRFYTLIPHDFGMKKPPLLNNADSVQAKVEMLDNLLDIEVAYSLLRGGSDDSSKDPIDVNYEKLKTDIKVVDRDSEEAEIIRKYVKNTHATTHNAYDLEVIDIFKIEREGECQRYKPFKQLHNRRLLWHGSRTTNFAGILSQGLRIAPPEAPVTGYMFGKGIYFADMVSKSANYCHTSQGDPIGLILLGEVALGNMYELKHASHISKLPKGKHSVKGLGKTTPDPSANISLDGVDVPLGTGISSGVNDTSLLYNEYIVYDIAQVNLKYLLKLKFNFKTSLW

For N#CC1=C(N)Oc2[nH]c(=O)[nH]c(=O)c2C1c1cccs1 (centres unmarked) [Compound S1, 7-amino-2,4-dioxo-5-(thiophen-2-yl)-2,3,4,5-tetrahydro-1H-pyrano[2,3-d]pyrimidine-6-carbonitrile], the IC50 (PARP-1; [1]) was 49.1 ± 2.32 nM, the IC50 (HCT116 cells) was 24100 ± 1140 nM and the IC50 (MCF-7 cells) was 12680 ± 120 nM.
With Nc1nc(S)nc2c1Oc1[nH]c(=O)[nH]c(=O)c1C2c1cccs1 (centres unmarked) [Compound S2, 4-amino-2-mercapto-10-(thiophen-2-yl)-6,10-dihydro-7H-pyrano[2,3-d:5,6-d']dipyrimidine-7,9(8H)-dione] the IC50 (PARP-1; [1]) was 4.06 ± 0.18 nM, the IC50 (HCT116 cells) was 9310 ± 340 nM and the IC50 (MCF-7 cells) was 2650 ± 50 nM.
Nc1nn(-c2cc([N+](=O)[O-])ccc2[N+](=O)[O-])c2c1Oc1[nH]c(=O)[nH]c(=O)c1C2c1cccs1 (centres unmarked) [Compound S3, 3-amino-1-(2,5-dinitrophenyl)-9-(thiophen-2-yl)-5,9-dihydropyrazolo[3′,4':5,6]pyrano[2,3-d]pyrimidine-6,8(1H,7H)-dione] gave an IC50 (PARP-1) of 71.4 ± 4.12 nM, an IC50 (HCT116 cells) of 2800 ± 70 nM and an IC50 (MCF-7 cells) of 3170 ± 1040 nM.
Nc1ncnc2c1Oc1[nH]c(=O)[nH]c(=O)c1C2c1cccs1 (centres unmarked) [Compound S4, 4-amino-10-(thiophen-2-yl)-6,10-dihydro-7H-pyrano[2,3-d:5,6-d']dipyrimidine-7,9(8H)-dione] gave an IC50 (PARP-1; [1]) of 14.9 ± 1.03 nM, an IC50 (PARP-1; read-out: IC50 against PARP-1 (converted)) of 15.1 nM and an IC50 (HCT116 cells) of 6380 ± 110 nM. The IC50 (MCF-7 cells) was 870 ± 70 nM.
Compound O=c1[nH]c2c(c(=O)[nH]1)C(c1cccs1)c1[nH]c(=S)[nH]c(=S)c1O2 (centres unmarked) [Compound S5, 10-(thiophen-2-yl)-2,4-dithioxo-1,2,3,4,6,10-hexahydro-7H-pyrano[2,3-d:5,6-d']dipyrimidine-7,9(8H)-dione] has an IC50 (PARP-1; [1]) of 11.1 ± 0.76 nM, an IC50 (HCT116 cells) of 7410 ± 180 nM and an IC50 (MCF-7 cells) of 4950 ± 70 nM.
In the case of CONC1=C(C#N)Oc2[nH]c(=O)[nH]c(=O)c2C1c1cccs1 (centres unmarked) [Compound S6, 6-(methoxyamino)-2,4-dioxo-5-(thiophen-2-yl)-2,3,4,5-tetrahydro-1H-pyrano[2,3-d]pyrimidine-7-carbonitrile], the IC50 (PARP-1; [1]) is reported as 115 ± 7.22 nM, the IC50 (HCT116 cells) is reported as 2850 ± 30 nM and the IC50 (MCF-7 cells) is reported as 3120 ± 110 nM.
O=c1[nH]c2c(c(=O)[nH]1)C(c1cccs1)c1[nH]c(=S)n(-c3ccccc3)c(=O)c1O2 (centres unmarked) [Compound S7, 3-phenyl-10-(thiophen-2-yl)-2-thioxo-2,3,6,10-tetrahydro-1H-pyrano[2,3-d:5,6-d']dipyrimidine-4,7,9(8H)-trione] was tested, and the IC50 (PARP-1; [1]) was 3.61 ± 0.15 nM, the IC50 (HCT116 cells) was 46900 ± 1820 nM and the IC50 (MCF-7 cells) was 1280 ± 1120 nM.
NC1=CC(c2ccc([N+](=O)[O-])cc2)=NC2Oc3[nH]c(=O)[nH]c(=O)c3C(c3cccs3)C12 (centres unmarked) [Compound S8, 6-amino-8-(4-nitrophenyl)-5-(thiophen-2-yl)-1,5,5a,9a-tetrahydro-2H-pyrido[3′,2':5,6]pyrano[2,3-d]pyrimidine-2,4(3H)-dione] gave an IC50 (PARP-1; [1]) of 15.8 ± 0.86 nM, an IC50 (HCT116 cells) of 2760 ± 60 nM and an IC50 (MCF-7 cells) of 660 ± 50 nM.
Work on CCO/C=N/C1=C(C#N)C(c2cccs2)c2c([nH]c(=O)[nH]c2=O)O1 (centres unmarked) [Compound S9, (E)-ethyl N-(6-cyano-2,4-dioxo-5-(thiophen-2-yl)-2,3,4,5-tetrahydro-1H-pyrano[2,3-d]pyrimidin-7-yl)formimidate] yielded an IC50 (PARP-1; [1]) of 48.5 ± 3.25 nM, an IC50 (HCT116 cells) of 2900 ± 40 nM and an IC50 (MCF-7 cells) of 8770 ± 150 nM.
With Cc1nc(O)c2c(n1)Oc1[nH]c(=O)[nH]c(=O)c1C2c1cccs1 (centres unmarked) [Compound S10, 6-hydroxy-8-methyl-5-(thiophen-2-yl)-1,5-dihydro-2H-pyrano[2,3-d:6,5-d']dipyrimidine-2,4(3H)-dione] the IC50 (PARP-1; [1]) was 16.2 ± 0.88 nM, the IC50 (HCT116 cells) was 12100 ± 640 nM and the IC50 (MCF-7 cells) was 4480 ± 430 nM.
Work on CN[C@@H]1C[C@H]2O[C@@](C)([C@@H]1OC)n1c3ccccc3c3c4c(c5c6ccccc6n2c5c31)C(=O)NC4 [Staurosporine, reference compound] yielded an IC50 (HCT116 cells) of 6940 ± 210 nM.
